Data from PubChem BioAssay (NCI).
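Interpolation was linear, between the two tested concentrations surrounding the appropriate level; five concentrations were tested over 48 hours in 96-well plates. TGI: concentration producing complete growth inhibition.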

Legend:
Test in all cases: inhibition of tumour cell growth, NCI panel, 48 h
[1] = test system: A498 renal
[2] = test system: HCT-15 colon
[3] = test system: HOP-62 NSCLC
[4] = test system: HOP-92 NSCLC
[5] = test system: K-562 leukemia
[6] = test system: LOX IMVI melanoma
[7] = test system: MOLT-4 leukemia
[8] = test system: OVCAR-3 ovarian
[9] = test system: OVCAR-5 ovarian
[10] = test system: OVCAR-8 ovarian
[11] = test system: PC-3 prostate
[12] = test system: RXF 393 renal
[13] = test system: SF-295 CNS
[14] = test system: SF-539 CNS
[15] = test system: SK-OV-3 ovarian
[16] = test system: SNB-19 CNS
[17] = test system: SNB-75 CNS
[18] = test system: T-47D breast
[19] = test system: U251 CNS
[20] = test system: RPMI-8226 leukemia

| SMILES | TGI [1] [µM] | TGI [2] [µM] | TGI [3] [µM] | TGI [4] [µM] | TGI [5] [µM] | TGI [6] [µM] | TGI [7] [µM] | TGI [8] [µM] | TGI [9] [µM] | TGI [10] [µM] | TGI [11] [µM] | TGI [12] [µM] | TGI [13] [µM] | TGI [14] [µM] | TGI [15] [µM] | TGI [16] [µM] | TGI [17] [µM] | TGI [18] [µM] | TGI [19] [µM] | TGI [20] [µM] |
| --- | --- | --- | --- | --- | --- | --- | --- | --- | --- | --- | --- | --- | --- | --- | --- | --- | --- | --- | --- | --- |
| CN(C)Cc1cc(N=Nc2ccc(Cl)cc2)ccc1O | 31.8 | 29.1 | 21.7 | 34.6 | 35.2 | 23.5 | 31.8 | 24.2 | 26.3 | 30.6 | 30.3 | 27.9 | 30.9 | 34.8 | 33.8 | 34.1 | 28.8 | 28.3 | 31.1 | – |
| O=C(Nn1cnn2c(=O)c3ccccc3nc2c1=O)c1ccccc1 | > 100 | > 100 | > 100 | > 100 | > 100 | > 100 | – | > 100 | > 100 | > 100 | > 100 | – | > 100 | > 100 | > 100 | > 100 | > 100 | > 100 | > 100 | > 100 |
| COC(=O)c1c(C(=O)OC)c2c3ccccc3n(C)c2c2c1c1ccccc1n2C | > 100 | > 100 | 75 | > 100 | > 100 | > 100 | > 100 | – | > 100 | > 100 | > 100 | – | > 100 | > 100 | > 100 | 83.3 | > 100 | > 100 | > 100 | > 100 |
| CCN(CC)COC(=S)S | > 100 | > 100 | > 100 | > 100 | > 100 | > 100 | 69 | – | > 100 | > 100 | > 100 | > 56.1 | > 100 | > 100 | > 100 | > 100 | > 90.2 | > 100 | > 100 | – |
| N#Cc1c(N)c(C#N)c2c(c1-c1ccc(Cl)cc1)COc1ccccc1-2 | 37.7 | > 100 | 33.5 | 45.5 | 35.3 | > 100 | 25 | 30.6 | > 100 | – | 42.6 | 30.4 | – | 49.1 | 36.9 | 30.6 | – | 58.2 | 32.7 | 17.1 |
| CC(O[Si](c1ccccc1)(c1ccccc1)C(C)(C)C)[C@H](NC(=O)OC(C)(C)C)C(=O)O (stereo not given in full) | > 100 | 79.7 | > 100 | 78.1 | > 100 | – | 46.1 | – | > 100 | > 100 | 56.8 | > 100 | > 100 | – | > 100 | > 100 | > 100 | > 100 | > 100 | > 100 |
| COCCOCCOCCOc1ccc(C(C#N)N(CCc2ccccc2)C(=O)c2cc(C(=O)N(CCc3ccccc3)C(C#N)c3ccc(OCCOCCOCCOC)cc3)cc(C(=O)N(CCc3ccccc3)C(C#N)c3ccc(OCCOCCOCCOC)cc3)c2)cc1 (stereo not given) | > 100 | > 100 | > 100 | > 100 | > 100 | > 100 | > 100 | > 100 | > 100 | > 100 | > 100 | > 100 | > 100 | > 100 | > 100 | > 100 | > 100 | > 100 | > 100 | – |
| COc1ccc(/C=C2/CCS(=O)(=O)c3ccc(C)cc3C2=O)cc1OC | – | 20.3 | > 100 | 9.55 | > 100 | 20.4 | 49.6 | > 100 | > 100 | 48.1 | 58.9 | 29.6 | 36 | > 100 | > 100 | 33.3 | 57.2 | 45.1 | 42 | 37.6 |
| CC(=O)OCC(OC(C)=O)C(OC(C)=O)C(OC(C)=O)C(/C=N\Nc1nc2ccccc2c(=O)[nH]1)=N/Nc1nc2ccccc2c(=O)[nH]1 (stereo not given) | – | > 100 | > 100 | > 100 | > 100 | > 100 | > 100 | > 100 | > 100 | > 100 | > 100 | > 100 | > 100 | > 100 | > 100 | > 100 | > 100 | > 100 | > 100 | > 100 |
| COc1ncnc2c1cnn2Cc1cn(CCCCO)nn1 | > 100 | > 100 | > 100 | > 100 | > 100 | > 100 | > 100 | > 100 | > 100 | > 100 | > 100 | > 100 | > 100 | > 100 | > 100 | > 100 | – | > 100 | > 100 | > 100 |
| O=C1NC(S(=O)(=O)O)=NNC12c1ccccc1-c1ccccc12 | – | > 10 | > 10 | > 10 | > 10 | > 10 | > 10 | – | – | > 10 | > 10 | > 10 | > 10 | > 10 | > 10 | > 10 | > 10 | > 10 | – | > 10 |
| Cc1cc(C)n(CN(Cn2nc(C)cc2C)c2ccccc2)n1 | > 100 | 50.2 | 66.8 | > 100 | 46.1 | 23.8 | 28.3 | 66.6 | 69.6 | 56 | > 100 | 38.9 | > 100 | 38.3 | > 100 | > 100 | – | > 100 | 44 | 47.6 |
| C=C1CC(CN2CCC(=O)NC2=O)(c2ccccc2)OC1=O (stereo not given) | 37.6 | 18.5 | 40.3 | 3.07 | 10.9 | 16.7 | 7.9 | 31.7 | 29 | 36.7 | 30.4 | – | 43 | 28.4 | 30.4 | > 56.2 | 32.3 | 11.7 | 32.1 | 7.95 |
| NC(N)=NS(=O)(=O)c1ccc(NC(=O)c2ccc3[nH]c4ccccc4c(=O)c3c2)cc1 | – | > 100 | > 100 | > 100 | > 100 | > 100 | > 100 | > 100 | > 100 | > 100 | > 100 | > 100 | > 100 | > 100 | > 100 | > 100 | > 100 | > 100 | > 100 | > 100 |
| CCOC(=O)N1[C@@H]2CCC[C@@H]2C(=O)[C@@H]2CCC[C@@H]21 | > 100 | > 100 | > 100 | > 100 | > 100 | > 100 | > 100 | > 100 | > 100 | > 100 | > 100 | > 100 | – | – | > 100 | > 100 | > 100 | > 100 | > 100 | > 100 |
| CN1C(=O)C23CCCCC2CC1(c1ccccc1)S3 (stereo not given) | > 100 | > 100 | > 100 | > 100 | > 100 | > 100 | > 100 | > 100 | > 100 | > 100 | > 100 | > 100 | > 100 | > 100 | > 100 | > 100 | – | > 100 | > 100 | > 100 |
| C=CCn1cnc2c(=O)[nH]c(Nc3ccccc3)nc21 | > 100 | > 100 | > 100 | > 100 | – | > 100 | > 100 | > 100 | > 100 | > 100 | > 100 | – | > 100 | > 100 | > 100 | > 100 | > 100 | > 100 | > 100 | > 100 |
| CC1(C)CN=C(Nc2ccc(F)c(F)c2)S1 | – | > 100 | > 100 | 90.4 | > 100 | > 100 | > 100 | > 100 | > 100 | > 100 | > 100 | > 100 | > 100 | > 100 | > 100 | > 100 | > 100 | > 100 | > 100 | > 100 |
| CN(C)c1ccc(C(=NN)c2ccc(N(C)C)cc2)cc1 | > 81.7 | > 40.9 | > 57.6 | > 54.4 | > 56.9 | > 100 | – | – | > 100 | > 100 | > 23.5 | > 32.7 | > 21.8 | – | > 85.5 | > 100 | 2.83 | > 100 | 9.21 | 10.3 |
| Oc1ccc(-c2cn3cc(C(F)(F)F)ccc3n2)cc1 | > 100 | > 100 | > 100 | > 100 | > 100 | > 100 | > 100 | > 100 | > 100 | > 100 | > 100 | > 100 | > 100 | – | > 100 | > 100 | > 100 | 60.7 | > 100 | – |
